Source: patent publication US20260234099A1, “Endocannabinoid ligands and related analogs” (Northeastern University, priority 2023, published 2026)
Where two headings read alike, the source gives them in different places.

What was measured:
CB2 receptor (hCB2) = CB2 receptor (hCB2) (Homo sapiens, UniProt P34972); experiment: cAMP assay (inhibition of FSK stimulated cAMP), CB2; format: cell-based
Protocol: FIG. 2A is a graph providing data of the % inhibition of FSK stimulated cAMP for compound 6.1.1 for hCB2.
Further functional characterization of some of the disclosed compounds tested initially for “binding affinity” or for GTPγ-S binding was performed by using the cyclic adenosine monophosphate (cAMP) assay. Key compounds initially characterized functionally using the GTPγ-S assay were also doubly tested using the cAMP assay to unambiguously confirm their functional profiles. The functional potency of the compounds tested using the cyclase assay is also represented by the EC50 (cAMP) value and similarly the lower the EC50 (cAMP) value the higher the potency of the compound for the receptor. A detailed description of the methods used to test compounds using the cAMP assay is given in Yingpeng, et al. J. Med. Chem. (2018) 61, 8639-8657 the content of which is hereby incorporated by reference. The EC50 values (potency of a test compound) of the functional assays may or may not be accompanied by the E(max) value in tables 1-5 (efficacy of the test compound). E(max)/efficacy is the maximum GTP stimulation or cAMP inhibition levels and is presented as the percentage of maximum response evoked by a standard CB1/CB2 full agonist (e.g., CP-55,940) for reference see the paper cited above. If a test compound has an efficacy close to 100% of the standard full agonist, then the test compound is also classified as full agonist.

CB2 receptor [1] = target: T1, CB2 receptor (Homo sapiens, UniProt P34972); experiment: GTPγ-S binding assay, CB2; format: biochemical
Protocol: The activity of some of the disclosed compounds for the CB1 and CB2 receptors was assessed by using the GTPγ-S binding assay (Tables 2,3,4). As used herein the “effect” of the compound on the GTPγ-S assay is represented by the EC50 (GTP) value. The lower the EC50 (GTP) value the higher the potency of the compound for the receptor A detailed description of the methods used to test compounds using the GTPγ-S assay is given in Parkkari, et al., Biorg. Med. Chem. Letters 2006, 16(9), 2437 and Griffin, et al., J. Pharmacol. Exp. Ther. 1998, 285(2), 553-560 the content of which is hereby incorporated by reference.

CB1 receptor (rCB1) = CB1 receptor (rCB1) (Rattus norvegicus, UniProt P20272); experiment: cAMP assay (inhibition of FSK stimulated cAMP), CB1; format: cell-based
Protocol: Further functional characterization of some of the disclosed compounds tested initially for “binding affinity” or for GTPγ-S binding was performed by using the cyclic adenosine monophosphate (cAMP) assay. […] A detailed description of the methods used to test compounds using the cAMP assay is given in Yingpeng, et al. J. Med. Chem. (2018) 61, 8639-8657 the content of which is hereby incorporated by reference. The EC50 values (potency of a test compound) of the functional assays may or may not be accompanied by the E(max) value in tables 1-5 (efficacy of the test compound). E(max)/efficacy is the maximum GTP stimulation or cAMP inhibition levels and is presented as the percentage of maximum response evoked by a standard CB1/CB2 full agonist (e.g., CP-55,940) for reference see the paper cited above.

CB1 receptor [2] = target: T2, CB1 receptor (Rattus norvegicus, UniProt P20272); experiment: CB1 receptor binding affinity (Ki)
Protocol: (§1) Some disclosed compounds were tested for CB1 and CB2 receptor binding affinity (Tables 1, 2, 3, 4, 5). As used herein “binding affinity” is represented by the Ki value. The Ki value is the affinity constant and describes the affinity of the compound for the receptor. […] A detailed description of the methods used to test “binding affinity” of compounds is given in Makriyannis, et al., US 2007/0135388 the content of which is hereby incorporated by reference.

CB2 receptor [3] = target: T1, CB2 receptor; experiment: CB2 receptor binding affinity (Ki); parameters: CB2 receptor Ki; CB2 receptor Ki (PMSF); other: with PMSF
Protocol: as §1

CB2 receptor [4] = target: T1, CB2 receptor; experiment: hCB2 receptor binding affinity (Ki), Table 7
Protocol: Some disclosed compounds were tested for CB1 and CB2 receptor binding affinity (Tables 1, 2, 3, 4, 5). As used herein “binding affinity” is represented by the Ki value. The Ki value is the affinity constant and describes the affinity of the compound for the receptor. The lower the Ki value, the higher the affinity of the compound for the receptor. A detailed description of the methods used to test “binding affinity” of compounds is given in Makriyannis, et al., US 2007/0135388 the content of which is hereby incorporated by reference.

CB1 receptor [5] = target: T2, CB1 receptor; experiment: GTPγ-S binding assay, CB1; format: biochemical; settings: class symbols; read-out: EC50 (GTP) CB1 receptor
Protocol: The activity of some of the disclosed compounds for the CB1 and CB2 receptors was assessed by using the GTPγ-S binding assay (Tables 2,3,4). As used herein the “effect” of the compound on the GTPγ-S assay is represented by the EC50 (GTP) value. […] Med. Chem. Letters 2006, 16(9), 2437 and Griffin, et al., J. Pharmacol. Exp. Ther. 1998, 285(2), 553-560 the content of which is hereby incorporated by reference.

CB2 receptor [6] = target: T1, CB2 receptor; experiment: CB2 receptor binding affinity (Ki); parameters: CB2 receptor Ki
Protocol: as §1

[7] = percentage of maximum response of standard full agonist (e.g., CP-55,940)
[8] = with PMSF, read-out: CB1 Receptor Ki with PMSF
[9] = without PMSF, read-out: CB1 receptor affinity Ki

CB2 receptor (hCB2), sequence (P34972 whole entry): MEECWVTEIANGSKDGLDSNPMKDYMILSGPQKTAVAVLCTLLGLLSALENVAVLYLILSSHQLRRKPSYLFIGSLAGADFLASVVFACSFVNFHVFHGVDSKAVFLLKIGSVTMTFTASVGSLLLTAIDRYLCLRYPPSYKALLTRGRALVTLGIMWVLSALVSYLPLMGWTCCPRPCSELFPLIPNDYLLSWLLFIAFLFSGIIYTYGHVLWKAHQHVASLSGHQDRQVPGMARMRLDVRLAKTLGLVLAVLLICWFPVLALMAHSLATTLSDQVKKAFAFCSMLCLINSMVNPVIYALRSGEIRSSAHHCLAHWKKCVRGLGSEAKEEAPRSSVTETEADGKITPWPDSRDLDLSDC
T1 sequence (P34972 whole entry): as above
CB1 receptor (rCB1), sequence (P20272 whole entry): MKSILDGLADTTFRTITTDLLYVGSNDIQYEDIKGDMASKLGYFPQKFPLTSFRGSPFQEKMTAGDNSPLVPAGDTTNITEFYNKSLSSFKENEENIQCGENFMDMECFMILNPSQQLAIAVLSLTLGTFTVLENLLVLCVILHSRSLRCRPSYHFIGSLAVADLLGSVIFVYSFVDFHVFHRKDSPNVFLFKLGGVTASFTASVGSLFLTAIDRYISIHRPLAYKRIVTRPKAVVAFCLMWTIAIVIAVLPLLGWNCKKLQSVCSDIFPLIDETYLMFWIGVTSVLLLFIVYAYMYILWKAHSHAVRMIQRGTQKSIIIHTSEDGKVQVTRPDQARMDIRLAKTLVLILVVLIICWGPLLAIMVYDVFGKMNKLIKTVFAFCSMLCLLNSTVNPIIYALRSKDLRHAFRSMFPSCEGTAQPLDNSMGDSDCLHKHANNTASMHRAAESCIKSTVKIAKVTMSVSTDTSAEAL
T2 sequence (P20272 whole entry): as above

With `CCCCC/C=C\C/C=C\C/C=C\C/C=C\CCCC(=O)OC(CO)CO` [Compound 2-AG, 2-arachidonoylglycerol, reference compound] the EC50 (CB2 receptor (hCB2); class symbols) was 10 to 200 nM and the EC50 (CB2 receptor [1]; class symbols, read-out: EC50 (GTP) CB2 receptor) was 200 to 1000 nM.

For `C[C@H](/C=C\C/C=C\C/C=C\CCCC(=O)N[C@H](C)CO)/C=C\CCCCCC#N` [Compound 4.1.5a, (S,5Z,8Z,11Z,14Z)-20-Cyano-N—((R)-1-hydroxypropan-2-yl)-13-methylicosa-5,8,11,14-tetraenamide], the “functional profile at CB1 (cAMP)” value (CB1 receptor (rCB1); full or partial agonist) was “partial agonist”, the EC50 (CB1 receptor (rCB1); numeric) was 8.7 nM and the Emax (CB1 receptor (rCB1); [7]) was 76%. It also gave a Ki (CB1 receptor [2]; [8]) of 0.01 to 10 nM, a Ki (CB1 receptor [2]; [9]) of 0.01 to 10 nM and a Ki (CB2 receptor [3]; read-out: CB2 receptor Ki) of 0.01 to 10 nM.

With `C[C@H](/C=C\C/C=C\C/C=C\CCCC(=O)N[C@H](C)CO)/C=C\CCCCC(F)(F)F` [Compound 4.1.5c] the Ki (CB2 receptor [4]) was 3.6 nM, the “fold higher binding affinity for CB2 compared to AM 356” value (CB2 receptor [4]; vs AM 356) was 61 fold and the “fold higher binding affinity for CB2 compared to AMG 315” value (CB2 receptor [4]; vs AMG 315) was 49 fold.

In the case of `CCCCC1(/C=C\C/C=C\C/C=C\C/C=C\CCCC(=O)N[C@H](C)CO)CCCC1` [Compound 4.4.3, (5Z,8Z,11Z,14Z)-15-(1-Butylcyclopentyl)-N—((R)-1-hydroxypropan-2-yl)pentadeca-5,8,11,14-tetraenamide], the Ki (CB1 receptor [2]; [8]) is reported as 200 to 1000 nM and the Ki (CB2 receptor [3]; read-out: CB2 receptor Ki (PMSF), with PMSF) is reported as > 1000 nM.

`CCCCCc1ccccc1C/C=C\C/C=C\C/C=C\CCCC(=O)N[C@H](C)CO` [Compound 4.6.3, (5Z,8Z,11Z)—N—((R)-1-hydroxypropan-2-yl)-13-(2-pentylphenyl)trideca-5,8,11-trienamide] was tested, and the Ki (CB1 receptor [2]; [8]) was 10 to 200 nM, the Ki (CB1 receptor [2]; [9]) was 10 to 200 nM and the Ki (CB2 receptor [3]; read-out: CB2 receptor Ki) was 10 to 200 nM.

`C[C@H](/C=C\C/C=C\C/C=C\CCCC(=O)N[C@H](C)CO)/C=C\CCCCCO` [Compound 4.7.2] showed a Ki (CB1 receptor [2]; [9]) of 10 to 200 nM and a Ki (CB2 receptor [3]; read-out: CB2 receptor Ki) of 10 to 200 nM.

`C[C@H](/C=C\C/C=C\C/C=C\CCCC(=O)N[C@H](C)CO)/C=C\CCCCCF` [Compound 4.7.4, (S,5Z,8Z,11Z,14Z)-20-Fluoro-N—((R)-1-hydroxypropan-2-yl)-13-methylicosa-5,8,11,14-tetraenamide] showed a Ki (CB1 receptor [2]; [9]) of 0.01 to 10 nM and a Ki (CB2 receptor [3]; read-out: CB2 receptor Ki) of 10 to 200 nM.

With `CCCCC/C=C\C/C=C\C/C=C\C/C=C\C1CC[C@@H](C(=O)OC(CO)CO)C1` (some centres unmarked) [Compound 5.2.2e] the EC50 (CB1 receptor [5]) was > 1000 nM and the EC50 (CB2 receptor (hCB2); class symbols) was 200 to 1000 nM.

`CCCCC/C=C\C/C=C\C/C=C\C/C=C\COC(C)C(=O)OC(CO)CO` (centres unmarked) [Compound 5.3.3, 1,3-Dihydroxypropan-2-yl 2-(((2Z,5Z,8Z,11Z)-heptadeca-2,5,8,11-tetraen-1-yl)oxy)propanoate] was tested, and the EC50 (CB1 receptor [5]) was > 1000 nM.

For `CCCCC/C=C\C/C=C\C/C=C\[C@H](C)/C=C\CCCC(=O)OC(CO)CO` [Compound 5.4.3a, 1,3-Dihydroxypropan-2-yl (R,5Z,8Z,11Z,14Z)-7-methylicosa-5,8,11,14-tetraenoate], the EC50 (CB1 receptor [5]) was > 1000 nM and the EC50 (CB2 receptor [1]) was 200 to 1000 nM.

With `CCCCC/C=C\C/C=C\C/C=C\[C@@H](C)/C=C\CCCC(=O)OC(CO)CO` [Compound 5.4.3b, 1,3-Dihydroxypropan-2-yl (S,5Z,8Z,11Z,14Z)-7-methylicosa-5,8,11,14-tetraenoate] the EC50 (CB1 receptor [5]) was > 1000 nM and the EC50 (CB2 receptor [1]) was > 1000 nM.

With `CCCCC/C=C\[C@H](C)/C=C\C/C=C\C/C=C\CCCCNC(=O)COC` [Compound 6.1.1, 2-Methoxy-N—((S,5Z,8Z,11Z,14Z)-13-methylicosa-5,8,11,14-tetraen-1-yl)acetamide] the Ki (CB1 receptor [2]; [9]) was 0.01 to 10 nM, the “functional profile at CB2 (cAMP)” value (CB2 receptor (hCB2); full or partial agonist) was “partial agonist” and the EC50 (CB2 receptor (hCB2); numeric) was 1.2 nM. The Emax (CB2 receptor (hCB2); [7]) was 40% and the Ki (CB2 receptor [6]) was 0.01 to 10 nM.
